Assay results as given in publication PMC8582824, “Targeting DDX3X Helicase Activity with BA103 Shows Promising Therapeutic Effects in Preclinical Glioblastoma Models” (Cancers, 2021).

test system: not listed separately; experiment: Human liver microsomal metabolic stability; format: in vitro ADME; conditions: 37 °C, 60 min
Procedure: Preliminary in vitro ADME analysis was performed to early evaluate the pharmacokinetic (PK) profile of our compounds (Figure 8). Aqueous solubility was calculated by LC-MS-MS analysis. An aliquot of 1 mg of compound was stirred for 24 h at 27 °C in 1 mL of water. The mixture was filtered, and the quantity of solubilized compound was determined. Passive permeability was determined using parallel artificial membrane permeability assay (PAMPA). Microsomal metabolic stability was determined by LC-UV-MS analysis by incubating compounds with human liver microsomes at 37 °C for 60 min (for details, see the Supporting Information). […]
Microsomal Stability Assay.
Each compound in DMSO solution was incubated at 37 °C for 60 min in 125 mM phosphate buffer (pH 7.4), 5 μL of human liver microsomal protein (0.2 mg mL-1), in the presence of a NADPH-generating system at a final […]
reaction was stopped by cooling on ice and adding 1.0 mL of acetonitrile. The reaction mixtures were then centrifuged, and the parent drug and metabolites were subsequently determined by LC-UV-MS.
Chromatographic analysis was performed with an Agilent 1100 LC/MSD VL system (G1946C) (Agilent Technologies, Palo Alto, CA) constituted by a vacuum solvent degassing unit, a binary high-pressure gradient pump, an 1100 series UV detector, and an 1100 MSD model VL benchtop mass spectrometer.
Chromatographic separation was obtained using a Varian Polaris C18-A column (150-4.6 mm, 5 μm particle size) and gradient elution: eluent A being ACN and eluent B consisting of water. The analysis started with 2% […]
flow rate was 0.8 mL min-1 and injection volume was 20 μL.
The Agilent 1100 series mass spectra detection (MSD) single-quadrupole instrument was equipped with the orthogonal spray API-ES (Agilent Technologies, Palo Alto, CA). Nitrogen was used as nebulizing and drying gas. The pressure of the nebulizing gas, the flow of the drying gas, the capillary voltage, the fragmentor voltage, and the vaporization temperature were set at 40 psi, 9 L/min, 3000 V, 70 V, and 350 °C, respectively.
UV detection was monitored at 280 nm. The LC-ESI-MS determination was performed by operating the MSD in the positive ion mode. Spectra were acquired over the scan range m/z 100-1500 using a step size of 0.1 u.
The percentage of not metabolized compound was calculated by comparison with reference solutions

Row | HLM Stability ± SD (Human Liver Microsomal Metabolic Stability) [%] | Compound
1 | 97.9 ± 0.3 | CCCCc1nnc(-c2ccc(NC(=O)Nc3ccccc3C(F)(F)F)cc2)[nH]1 [Compound 4, 1-(4-(5-Butyl-4H-1,2,4-triazol-3-yl)phenyl)-3-(2-(trifluoromethyl)phenyl)urea]
2 | 90.32 ± 0.7 | CCCCn1nnc(-c2ccc(NC(=O)Nc3ccccc3C(F)(F)F)cc2)n1 [Compound 6, 1-(4-(2-Butyl-2H-tetrazol-5-yl)phenyl)-3-(2-(trifluoromethyl)phenyl)urea]
3 | 91.31 ± 0.1 | CC(C)CCc1cn(-c2ccc(NC(=O)Nc3cccc4cnccc34)cn2)nn1 [Compound 10, 1-(6-(4-Isopentyl-1H-1,2,3-triazol-1-yl)pyridin-3-yl)-3-(isoquinolin-5-yl)urea]

test system: U251 cells; experiment: MTS cytotoxicity assay, U251 cells; format: cell-based; conditions: U251, 0,01 uM, 72 h
Procedure: (§1) For CellTiter 96® Aqueous One Solution Cell Proliferation Assay (MTS) (Promega, Madison, WI, USA), cells were seeded at 5 × 10^3 per well in 96-well plates in quadruplicate together a control with no cells to evaluate the background. After 24 h, the culture medium was removed, and fresh medium containing increasing concentrations of chemical compounds was added to cells. […] DMSO was the vehicle used for dilution of the compounds, and its final concentration on cells was less than 0.2%. Medium-only containing wells were included as controls. Cells were incubated with compounds at different concentrations for 72 h, then, 20 µL of CellTiter 96® AQueous One Solution Reagent was added into each well. After 3 h at 37 °C in a humidified, 5% CO2 atmosphere, the absorbance at 492 nm was recorded using an EZREAD400 (Biochrom, Cambridge, United Kingdom) plate reader. The average 490 nm absorbance from the “no cell” control wells was subtracted from all other values to yield background-corrected absorbance. Dose–response curves and CC50 values have been calculated by plotting the absorbance data as a function of inhibitor concentrations and fitting the data by least-squares nonlinear regression, according to the method of Marquardt–Levenberg, with the computer program GraphPad Prism 6.0.
(§2) Cells were incubated with a scalar concentration of DDX3X inhibitors, and after 72 h of treatment, cell viability was assessed by cytotoxicity assay. […] Compounds 4, 6, and BA103 were also evaluated against BJ primary fibroblasts; compound 4 has a cytotoxicity value of 84.7 μM; on the contrary, compounds 6 and BA103 were not toxic up to 200 μM concentration. This further excluded a possible nonspecific cytotoxic effect. […] Due to its interesting profile, compound BA103 was further tested against additional pulmonary (A549), breast (MDA-MB-231), colorectal (HCT-116), osteosarcoma (U2OS), rhabdomyosarcoma (RD18), GBM (DBTRG, U87, and U251) and medulloblastoma (DAOY) cancer cell lines.
(§3) Figure 5 Cytotoxicity of selected compounds. Compounds were assayed on DU-145, PC3, HepG2, Huh-7, HN6, U251, and U87 cell lines. The concentration of the compound, which reduced the number of viable cells by 50% (CC50), was determined by dose–response curve, and the mean CC50 value for each cell line was calculated by triplicate assays (raw data from U87 and U251 cells with dose–response curves used for the calculation of CC50 in Table S1 and Figure S2).
(§4) Table S1: Raw data of optical absorbance at 490 nm from MTS assay in U87 and U251 cells. Tables contain
(§5) means with SD of at least 5 different values that were used for preparation of figure 5.

Row | Compound | mean absorbance at 490 nm (MTS)
4 | CCCCc1nnc(-c2ccc(NC(=O)Nc3ccccc3C(F)(F)F)cc2)[nH]1 [Compound 4, 1-(4-(5-Butyl-4H-1,2,4-triazol-3-yl)phenyl)-3-(2-(trifluoromethyl)phenyl)urea] | 1,499
5 | CCCCn1nnc(-c2ccc(NC(=O)Nc3ccccc3C(F)(F)F)cc2)n1 [Compound 6, 1-(4-(2-Butyl-2H-tetrazol-5-yl)phenyl)-3-(2-(trifluoromethyl)phenyl)urea] | 1,431
6 | CC(C)CCc1cn(-c2ccc(NC(=O)Nc3cccc4cnccc34)cn2)nn1 [Compound 10, 1-(6-(4-Isopentyl-1H-1,2,3-triazol-1-yl)pyridin-3-yl)-3-(isoquinolin-5-yl)urea] | 1,904

same assay, conditions: U251, 0,1 uM, 72 h

Row | Compound | mean absorbance at 490 nm (MTS)
7 | CCCCc1nnc(-c2ccc(NC(=O)Nc3ccccc3C(F)(F)F)cc2)[nH]1 [Compound 4, 1-(4-(5-Butyl-4H-1,2,4-triazol-3-yl)phenyl)-3-(2-(trifluoromethyl)phenyl)urea] | 1,513
8 | CCCCn1nnc(-c2ccc(NC(=O)Nc3ccccc3C(F)(F)F)cc2)n1 [Compound 6, 1-(4-(2-Butyl-2H-tetrazol-5-yl)phenyl)-3-(2-(trifluoromethyl)phenyl)urea] | 1,763
9 | CC(C)CCc1cn(-c2ccc(NC(=O)Nc3cccc4cnccc34)cn2)nn1 [Compound 10, 1-(6-(4-Isopentyl-1H-1,2,3-triazol-1-yl)pyridin-3-yl)-3-(isoquinolin-5-yl)urea] | 2,003

same assay, conditions: U251, 1 uM, 72 h

Row | Compound | mean absorbance at 490 nm (MTS)
10 | CCCCc1nnc(-c2ccc(NC(=O)Nc3ccccc3C(F)(F)F)cc2)[nH]1 [Compound 4, 1-(4-(5-Butyl-4H-1,2,4-triazol-3-yl)phenyl)-3-(2-(trifluoromethyl)phenyl)urea] | 1,627
11 | CCCCn1nnc(-c2ccc(NC(=O)Nc3ccccc3C(F)(F)F)cc2)n1 [Compound 6, 1-(4-(2-Butyl-2H-tetrazol-5-yl)phenyl)-3-(2-(trifluoromethyl)phenyl)urea] | 2,172
12 | CC(C)CCc1cn(-c2ccc(NC(=O)Nc3cccc4cnccc34)cn2)nn1 [Compound 10, 1-(6-(4-Isopentyl-1H-1,2,3-triazol-1-yl)pyridin-3-yl)-3-(isoquinolin-5-yl)urea] | 1,581

same assay, conditions: U251, 10 uM, 72 h

Row | Compound | mean absorbance at 490 nm (MTS)
13 | CCCCc1nnc(-c2ccc(NC(=O)Nc3ccccc3C(F)(F)F)cc2)[nH]1 [Compound 4, 1-(4-(5-Butyl-4H-1,2,4-triazol-3-yl)phenyl)-3-(2-(trifluoromethyl)phenyl)urea] | 1,482
14 | CCCCn1nnc(-c2ccc(NC(=O)Nc3ccccc3C(F)(F)F)cc2)n1 [Compound 6, 1-(4-(2-Butyl-2H-tetrazol-5-yl)phenyl)-3-(2-(trifluoromethyl)phenyl)urea] | 1,348
15 | CC(C)CCc1cn(-c2ccc(NC(=O)Nc3cccc4cnccc34)cn2)nn1 [Compound 10, 1-(6-(4-Isopentyl-1H-1,2,3-triazol-1-yl)pyridin-3-yl)-3-(isoquinolin-5-yl)urea] | 1,667

same assay, conditions: U251, 100 uM, 72 h

Row | Compound | mean absorbance at 490 nm (MTS)
16 | CCCCc1nnc(-c2ccc(NC(=O)Nc3ccccc3C(F)(F)F)cc2)[nH]1 [Compound 4, 1-(4-(5-Butyl-4H-1,2,4-triazol-3-yl)phenyl)-3-(2-(trifluoromethyl)phenyl)urea] | 0,502
17 | CCCCn1nnc(-c2ccc(NC(=O)Nc3ccccc3C(F)(F)F)cc2)n1 [Compound 6, 1-(4-(2-Butyl-2H-tetrazol-5-yl)phenyl)-3-(2-(trifluoromethyl)phenyl)urea] | 0,361
18 | CC(C)CCc1cn(-c2ccc(NC(=O)Nc3cccc4cnccc34)cn2)nn1 [Compound 10, 1-(6-(4-Isopentyl-1H-1,2,3-triazol-1-yl)pyridin-3-yl)-3-(isoquinolin-5-yl)urea] | 0,809

test system: U87 cells; experiment: MTS cytotoxicity assay, U87 cells; format: cell-based; conditions: U87, 0,01 uM, 72 h
Procedure: as §1, §2, §3, §4, §5

Row | Compound | mean absorbance at 490 nm (MTS)
19 | CCCCc1nnc(-c2ccc(NC(=O)Nc3ccccc3C(F)(F)F)cc2)[nH]1 [Compound 4, 1-(4-(5-Butyl-4H-1,2,4-triazol-3-yl)phenyl)-3-(2-(trifluoromethyl)phenyl)urea] | 1,906
20 | CCCCn1nnc(-c2ccc(NC(=O)Nc3ccccc3C(F)(F)F)cc2)n1 [Compound 6, 1-(4-(2-Butyl-2H-tetrazol-5-yl)phenyl)-3-(2-(trifluoromethyl)phenyl)urea] | 1,944
21 | CC(C)CCc1cn(-c2ccc(NC(=O)Nc3cccc4cnccc34)cn2)nn1 [Compound 10, 1-(6-(4-Isopentyl-1H-1,2,3-triazol-1-yl)pyridin-3-yl)-3-(isoquinolin-5-yl)urea] | 1,863

same assay, conditions: U87, 0,1 uM, 72 h

Row | Compound | mean absorbance at 490 nm (MTS)
22 | CCCCc1nnc(-c2ccc(NC(=O)Nc3ccccc3C(F)(F)F)cc2)[nH]1 [Compound 4, 1-(4-(5-Butyl-4H-1,2,4-triazol-3-yl)phenyl)-3-(2-(trifluoromethyl)phenyl)urea] | 1,293
23 | CCCCn1nnc(-c2ccc(NC(=O)Nc3ccccc3C(F)(F)F)cc2)n1 [Compound 6, 1-(4-(2-Butyl-2H-tetrazol-5-yl)phenyl)-3-(2-(trifluoromethyl)phenyl)urea] | 1,964
24 | CC(C)CCc1cn(-c2ccc(NC(=O)Nc3cccc4cnccc34)cn2)nn1 [Compound 10, 1-(6-(4-Isopentyl-1H-1,2,3-triazol-1-yl)pyridin-3-yl)-3-(isoquinolin-5-yl)urea] | 1,379

same assay, conditions: U87, 1 uM, 72 h

Row | Compound | mean absorbance at 490 nm (MTS)
25 | CCCCc1nnc(-c2ccc(NC(=O)Nc3ccccc3C(F)(F)F)cc2)[nH]1 [Compound 4, 1-(4-(5-Butyl-4H-1,2,4-triazol-3-yl)phenyl)-3-(2-(trifluoromethyl)phenyl)urea] | 0,941
26 | CCCCn1nnc(-c2ccc(NC(=O)Nc3ccccc3C(F)(F)F)cc2)n1 [Compound 6, 1-(4-(2-Butyl-2H-tetrazol-5-yl)phenyl)-3-(2-(trifluoromethyl)phenyl)urea] | 2,007
27 | CC(C)CCc1cn(-c2ccc(NC(=O)Nc3cccc4cnccc34)cn2)nn1 [Compound 10, 1-(6-(4-Isopentyl-1H-1,2,3-triazol-1-yl)pyridin-3-yl)-3-(isoquinolin-5-yl)urea] | 1,165

same assay, conditions: U87, 10 uM, 72 h

Row | Compound | mean absorbance at 490 nm (MTS)
28 | CCCCc1nnc(-c2ccc(NC(=O)Nc3ccccc3C(F)(F)F)cc2)[nH]1 [Compound 4, 1-(4-(5-Butyl-4H-1,2,4-triazol-3-yl)phenyl)-3-(2-(trifluoromethyl)phenyl)urea] | 0,784
29 | CCCCn1nnc(-c2ccc(NC(=O)Nc3ccccc3C(F)(F)F)cc2)n1 [Compound 6, 1-(4-(2-Butyl-2H-tetrazol-5-yl)phenyl)-3-(2-(trifluoromethyl)phenyl)urea] | 1,387
30 | CC(C)CCc1cn(-c2ccc(NC(=O)Nc3cccc4cnccc34)cn2)nn1 [Compound 10, 1-(6-(4-Isopentyl-1H-1,2,3-triazol-1-yl)pyridin-3-yl)-3-(isoquinolin-5-yl)urea] | 0,858

same assay, conditions: U87, 100 uM, 72 h

Row | Compound | mean absorbance at 490 nm (MTS)
31 | CCCCc1nnc(-c2ccc(NC(=O)Nc3ccccc3C(F)(F)F)cc2)[nH]1 [Compound 4, 1-(4-(5-Butyl-4H-1,2,4-triazol-3-yl)phenyl)-3-(2-(trifluoromethyl)phenyl)urea] | 0,162
32 | CCCCn1nnc(-c2ccc(NC(=O)Nc3ccccc3C(F)(F)F)cc2)n1 [Compound 6, 1-(4-(2-Butyl-2H-tetrazol-5-yl)phenyl)-3-(2-(trifluoromethyl)phenyl)urea] | 0,540
33 | CC(C)CCc1cn(-c2ccc(NC(=O)Nc3cccc4cnccc34)cn2)nn1 [Compound 10, 1-(6-(4-Isopentyl-1H-1,2,3-triazol-1-yl)pyridin-3-yl)-3-(isoquinolin-5-yl)urea] | 0,467
